From US20030134901A1, “Lipoxin compounds and their use in treating cell proliferative disorders” (priority 1993, published 2003)

Experiments:
[1] = tested on: PMA-treated HL-60 cells; test: Lipoxin metabolism / bio-half-life assay with phorbol ester-treated HL-60 cells; format: in vitro ADME, human; settings: at times up to two hours
Protocol: HL-60 cells were purchased from American Type Culture Collection (Rockville, Md.), and other cell culture reagents were from GIBCO (Grand Island, N.Y.). Versene (EDTA) was from Whittaker Bioproducts (Walkersville, Md.). Synthetic 11,12-acetylenic LXA4 methyl ester and LXs were from Cascade Biochemical (Reading, U.K.). 15(S)-15-m-PGE1, PGE1, and 5-HETE were from Cayman Chemical Co. (Ann Arbor, Mich.). [11,12-^3H]LXA4 was prepared from 11,12-acetylenic LXA4 using Lindlar catalyst as a custom tritiation (NET-259, lot 0 2793-275, New England Nuclear, Boston, Mass.). Tritiated products were isolated using RP-HPLC (Fiore et al. (1992) J. Biol. Chem. 267:16168; Serhan, C. N. (1990) Meth. Enzymol. 187:167). Methoxyamine and NAD were from Sigma Chemical Company (St. Louis, Mo.). Manganese dioxide and Adams reagent were from Aldrich Chemical Co. (Milwaukee, Wis.).
Human PMN were obtained from healthy volunteers by gradient centrifugation of heparinized fresh venous blood (Böyum, A. ([…]) Scand. J. Clin. Lab. Invest. 21:77). HL-60 cells were seeded in RPMI supplemented with penicillin (100 U/ml), streptomycin (100 μ/ml), fetal bovine serum (10%) (Hyclone, Logan, Utah) and incubated (37° C. with 5% CO2 atmosphere) in plastic 250 ml flasks. Individual flasks containing […] HL-60 cells/ml were incubated in the presence or absence of phorbol 12-myristate 13-acetate (PMA) (10 or 16 nM, 24-27 h) and adherence was monitored for induction of macrophage-like phenotype as in Collins, S. J. (1987) Blood 70:1233. […]
Incubations with eicosanoids were stopped with cold methanol containing either PGB2 or 5-HETE as internal standards (5-HETE was used when 15-oxo-ETE was quantified). […] Formation of 15-oxo-ETE by 100,000 g supernatants (cf. Agins, A. P. et al. (1987) Agents Actions 21:397; Xun, C-Q. et al.(1991) Biochem. J. 279:553; and Sok, D-E. et al. (1988) Biochem. Biophys. Res. Commun. 156:524) was quantified after RP-HPLC using an ODS column (4.6 mm×25 cm) eluted with methanol/H2O/acetic acid (70:30:0.01, v/v/v) monitored at 280 nm with a flow rate of 1 ml/min. […] On-line spectra were recorded using a diode array detector (Hewlett-Packard 1040M series II) equipped with HPLC^3D ChemStation software (DOS series). […]
The “bio-half-life” of compounds 1-8 was assessed using phorbol ester-treated human promyelocytic leukemia (HL-60) cells as described in Example 2. […]

[2] = tested on: neutrophil adhesion to endothelial cells; test: Neutrophil adhesion assay; format: cell-based; settings: read-out: IC50, PMN adhesion triggered by LTB4 to human endothelial cells; triggered by leukotriene B4
Protocol: Several of the preferred LX analogs (shown structurally as compounds 1 through 8 above) were prepared by total synthesis as described in Example 1. Following preparation and isolation of these compounds via HPLC, compounds were first assessed to determine whether they retain biological activity using the neutrophil adhesion assay and epithelial cell transmigration assays (as described in Nash, S et al., (1987) J. Clin. Invest. 80:1104-1113; Nash, S et al., (1991) J. Clin. Invest. 87: 1474-1477; Parkos, C. A. et al., (1991) J. Clin. Invest. 88:1605-1612; Parkos, C. A. et al. (1992) J. Cell. Biol. 117:757-764; Madara J. L. et al., (1992) J. Tiss. Cult. Meth. 14:209-216).

recovery in the incubation medium (bio-half-life) [1]: quantitatively recovered | IC50 [2]: ~1 nM
SMILES: CCCCCC(C)(O)C=CC=CC=CC=CC(O)C(O)CCCC(=O)O (centres unmarked) [compound 2, 15-methyl-LXA4]
